Among the data in article PMC9254247, “Dual-sensitive antibacterial peptide nanoparticles prevent dental caries” (Theranostics, 2022) are HC50 values, retold here.

In this data set the test system is fresh mice erythrocytes. It counts as cell-based, mouse. The conditions noted are these: PBS pH 7.4; 30 min; 37 °C. An excerpt: Peptide and different pH of culture medium prepared. The pH of BHI medium was adjusted by HCl and NaOH. All peptides, including lycosin- I, pHly-1, s-pHly-1 were synthesized on a Rink amide-AM resin using the SPPS
(9- fluorenyl-methoxycarbonyl solid-phase peptide synthesis) method as reported previously1. Then peptides were cleaved from the resin using TFA/1,2- ethanedithiol/thioanisole/anisole (90/5/3/2 (v/v)), precipitated in cold diethyl ether and the collected precipitate was dried by air -drying . The prepared peptides were purified by reverse phase- HPLC (RP-HPLC) and their molecular weights were determined by MALDI-TOF MS.
Hemolytic assay. Approximately 4 % (in volume) of the mouse erythrocyte s were prepared by diluting fresh erythrocytes to 25-fold dilution with PBS buffer (pH 7.4).
The stock peptide solution ([…]) diluted by PBS solution to reach various concentrations (200 μL) was placed in a 1.5 mL sterile microfuge tube, followed by the addition of 200 μ L o f erythrocyte suspension. The mixture was incubated at 37 °C for 30 min. Then, the mixture was centrifuged at 3,500 rpm for 5 min to collect the supernatant. Aliquots (100 μL) of the supernatant were removed to 96-well plates, and the absorbance was detected at 450 nm using a microplate reader (Multiskan Spectrum, BioTek Inc., USA). Untreated erythrocyte suspension in an equal volume of PBS solution and 0.1% Triton X-100 were used as the negative control and positive […]
Isolation and culture of clinical S.mutans strains. Ethical approval of the study and the written consent/permission forms were obtained from Institutional Review Board (IRB) at Hunan Normal University prior to the study. For each child, written permission form was reviewed and signed by their legal guardians. Plaque -biofilm samples were collected from patients, including 16 Middle-aged and young patients and 4 children (age between 48 and 72 months) diagnosed with severe early childhood caries (S-ECC) in Changsha Stomatological Hospital. […]

No end group written: not given here.

In the case of “LHQHLHQHAIFHAIIHMAHFWIK-NH2 [s-pHly-1 NPs]”, the HC50 (in general, the concentration that lyses half of the red blood cells) stood at 423.0 µM.
